Laboratory results: PubChem BioAssay (NCI)
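Cultured in 96-well plates, cells were exposed to test compound for 48 hours across five concentrations. GI50 is the concentration that inhibits growth by half. TGI is the concentration that stops growth completely.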

How the values were obtained:
Test in all cases: inhibition of tumour cell growth, NCI panel, 48 h
NCI-H522 lung = system: NCI-H522 lung
LOX IMVI melanoma = system: LOX IMVI melanoma
TK-10 renal = system: TK-10 renal
M14 melanoma = system: M14 melanoma
HL-60(TB) leukemia = system: HL-60(TB) leukemia
OVCAR-3 ovarian = system: OVCAR-3 ovarian
EKVX NSCLC = system: EKVX NSCLC
RPMI-8226 leukemia = system: RPMI-8226 leukemia
HOP-92 NSCLC = system: HOP-92 NSCLC
MALME-3M melanoma = system: MALME-3M melanoma

| SMILES | GI50 (NCI-H522 lung) | TGI (NCI-H522 lung) | GI50 (LOX IMVI melanoma) | TGI (LOX IMVI melanoma) | GI50 (TK-10 renal) | TGI (TK-10 renal) | GI50 (M14 melanoma) | TGI (M14 melanoma) | GI50 (HL-60(TB) leukemia) | TGI (HL-60(TB) leukemia) | GI50 (OVCAR-3 ovarian) | TGI (OVCAR-3 ovarian) | GI50 (EKVX NSCLC) | TGI (EKVX NSCLC) | GI50 (RPMI-8226 leukemia) | TGI (RPMI-8226 leukemia) | GI50 (HOP-92 NSCLC) | TGI (HOP-92 NSCLC) | TGI (MALME-3M melanoma) | GI50 (MALME-3M melanoma) |
| --- | --- | --- | --- | --- | --- | --- | --- | --- | --- | --- | --- | --- | --- | --- | --- | --- | --- | --- | --- | --- |
| O=S(=O)(O)c1ccc(Cl)cc1.[Cd] | 1.99 µM | 6.79 µM | > 100 µM | > 100 µM | > 100 µM | > 100 µM | > 100 µM | > 100 µM | 51.7 µM | > 100 µM | 18.5 µM | 44.4 µM | 80.6 µM | > 100 µM | 32.1 µM | > 100 µM | > 100 µM | > 100 µM | – | – |
| Cc1cc2cc(Cl)ccc2nc1C(=O)c1ccccc1 | – | > 100 µM | – | > 100 µM | – | > 100 µM | – | > 100 µM | – | – | – | > 100 µM | – | – | – | > 100 µM | – | – | > 100 µM | – |
| O=C(/C=C/c1ccccn1)c1ccccc1O | 1.56 µM | 3.08 µM | 1.85 µM | 4.43 µM | 2.28 µM | 4.95 µM | 2 µM | 4.28 µM | 2.15 µM | 6.15 µM | 1.71 µM | 3.5 µM | 5.22 µM | 21.8 µM | – | – | 2.1 µM | 4.91 µM | – | – |
| O=C1CSC(=S)N1c1ccc(F)cc1F | – | 47.3 µM | – | > 100 µM | – | > 100 µM | – | > 100 µM | – | – | – | > 100 µM | – | > 100 µM | – | 66.4 µM | – | > 100 µM | > 100 µM | – |
| O=C(CCCCC(=O)N/N=C\c1ccccc1Cl)N/N=C\c1ccccc1Cl | 2.13 µM | 41.1 µM | > 100 µM | > 100 µM | 4.68 µM | 25.8 µM | 2.06 µM | > 100 µM | – | – | 0.598 µM | 28.8 µM | 1.73 µM | > 100 µM | 0.723 µM | > 100 µM | 1.95 µM | 19.2 µM | > 100 µM | 9.26 µM |
| CC1(C)CC[C@]2(C(=O)n3ccnc3)CC[C@]3(C)[C@H](C(=O)C=C4[C@@]5(C)C=C(C#N)C(=O)C(C)(C)[C@@H]5CC[C@]43C)[C@@H]2C1 | 0.0168 µM | 0.0585 µM | – | – | < 0.0132 µM | < 0.0226 µM | 0.0287 µM | 0.196 µM | – | – | < 0.01 µM | 0.0994 µM | 0.141 µM | 0.545 µM | < 0.01 µM | < 0.01 µM | 0.0221 µM | 0.102 µM | < 0.0188 µM | < 0.0111 µM |
| COc1ccc2c(c1)CCc1cnn(C3OC(COC(C)=O)C(OC(C)=O)C(OC(C)=O)C3OC(C)=O)c1-2 (centres undefined) | – | 31.7 µM | – | > 100 µM | – | > 100 µM | – | > 100 µM | – | > 100 µM | – | 56.7 µM | – | > 100 µM | – | 53.8 µM | – | 51.5 µM | – | – |
| CN(C)c1ccc(/C=C/C(=O)c2ccccc2)cc1Br | – | 31.4 µM | – | – | – | 74.2 µM | – | 27.3 µM | – | – | – | 35.5 µM | – | > 100 µM | – | 44.4 µM | – | – | 43 µM | – |
| COc1ccc(S(=O)(=O)N2CCN(C(=O)OCc3ccccc3)CC2C(=O)NO)cc1 (centres undefined) | 5.16 µM | > 25 µM | 1.28 µM | 4.6 µM | 10.9 µM | > 25 µM | > 25 µM | > 25 µM | – | – | 12.1 µM | > 25 µM | 6.18 µM | > 25 µM | – | – | – | – | > 25 µM | > 25 µM |
| Cc1cc(Cl)ccc1NC(=O)/C(Cl)=C(/Cl)C(=O)O | – | 32.7 µM | – | 43 µM | – | 33.2 µM | – | 72.1 µM | – | > 100 µM | – | 36.8 µM | – | 39.9 µM | – | 70.5 µM | – | 54.5 µM | – | – |
| CCCCCCCCCCCCOC1C(CNC(=O)C2OC3OC(C)(C)OC3C2NC(=O)CN2CCN(c3ccccn3)CC2)OC2OC(C)(C)OC21 (centres undefined) | 1.66 µM | 3.2 µM | 1.88 µM | 3.53 µM | 1.76 µM | 3.27 µM | 1.68 µM | 3.1 µM | – | – | 1.54 µM | 3.02 µM | 1.7 µM | 3.14 µM | – | – | 1.7 µM | 3.18 µM | 3.86 µM | 1.88 µM |
| Cn1c(=O)nc2n(-c3ccc(F)cc3)c3ccccc3nc-2c1=O | – | 35.4 µM | – | – | – | 89.1 µM | – | 67.3 µM | – | – | – | 11 µM | – | 32 µM | – | 70.9 µM | – | – | 23 µM | – |
| O=C1OC(c2ccccc2)C2CC3CC4(CCC3CN12)OCCO4 (centres undefined) | – | 1.57 µM | – | > 100 µM | – | > 100 µM | – | > 100 µM | – | > 100 µM | – | > 100 µM | – | > 100 µM | – | > 100 µM | – | > 100 µM | – | – |
| COc1ccc(C(=O)/C(=N/Nc2ccccc2)c2ccc(OC)cc2)cc1 | – | > 100 µM | – | – | – | > 100 µM | – | – | – | – | – | – | – | > 100 µM | – | > 100 µM | – | – | > 100 µM | – |
| CC1(C)Cc2cccc(OCC(O)CN3CCN(c4ccc(F)cc4)CC3)c2O1 (centres undefined) | 47.8 µM | > 50 µM | 23.8 µM | > 50 µM | > 50 µM | > 50 µM | 7.37 µM | 15.1 µM | 16.4 µM | > 50 µM | 22.9 µM | > 50 µM | 25 µM | > 50 µM | 9.18 µM | 26.2 µM | 8.15 µM | 31.4 µM | – | – |
| O=C(N/N=C/c1coc2ccc(Cl)cc2c1=O)c1ccncc1 | 58.2 µM | > 100 µM | 38.6 µM | > 100 µM | 17.2 µM | 52.5 µM | 37.5 µM | > 100 µM | – | – | 68.5 µM | > 100 µM | 44.6 µM | > 100 µM | 16.6 µM | > 100 µM | 93.8 µM | > 100 µM | – | – |
| COC(=O)CCC(=O)CC(=O)C(=O)Nc1ccc(F)cc1 | – | > 100 µM | – | > 100 µM | – | > 100 µM | – | > 100 µM | – | – | – | > 100 µM | – | > 100 µM | – | > 100 µM | – | > 100 µM | > 100 µM | – |
| O=C(O)CN(CC(=O)O)Cc1cc2c(cc1O)Oc1cc(O)c(CN(CC(=O)O)CC(=O)O)cc1C21OC(=O)c2ccccc21 | – | > 100 µM | – | > 100 µM | – | > 100 µM | – | > 100 µM | – | > 100 µM | – | > 100 µM | – | > 100 µM | – | > 100 µM | – | > 100 µM | – | – |
| COc1ccc(C(=O)C(c2ccc(OC)cc2)C2C(=O)Oc3ccccc32)cc1 (centres undefined) | > 100 µM | > 100 µM | – | – | > 100 µM | > 100 µM | > 100 µM | > 100 µM | – | – | > 100 µM | > 100 µM | > 100 µM | > 100 µM | > 100 µM | > 100 µM | > 100 µM | > 100 µM | > 100 µM | > 100 µM |
| Nc1nc(=O)n(C2CC(O)C(O)C(CO)O2)cc1F (centres undefined) | – | > 100 µM | – | > 100 µM | – | > 100 µM | – | > 100 µM | – | > 100 µM | – | > 100 µM | – | > 100 µM | – | > 100 µM | – | – | > 100 µM | – |
| COc1ccc(-c2cc(-c3ccc(O)cc3)nc3nc(=S)[nH]c(N)c23)cc1 | 8.5 µM | 27.8 µM | 12 µM | 30.3 µM | 32.2 µM | 92.9 µM | 19.7 µM | 35.4 µM | – | – | 16.4 µM | 45 µM | 13.5 µM | 60.7 µM | 10.6 µM | 25.7 µM | 5.15 µM | 36.4 µM | 38.7 µM | 17.6 µM |
| COc1cc(-c2cc(/C=C/C(=O)c3ccc4c(c3)OCO4)[nH]n2)cc(OC)c1OC | 1.03 µM | 2.35 µM | 1.82 µM | 3.78 µM | 2.33 µM | 5.73 µM | 3.86 µM | > 100 µM | 2.17 µM | 6.36 µM | 3.38 µM | 12.3 µM | – | – | 0.51 µM | 2.94 µM | – | – | 20.8 µM | 4.42 µM |
| Cc1cc2c(cc1C)N1Cc3c(ccc(C)c3C)N(C2)C1 (tested in a mixture with another compound) | – | > 100 µM | – | > 100 µM | – | > 100 µM | – | > 100 µM | – | > 100 µM | – | > 100 µM | – | > 100 µM | – | > 100 µM | – | – | – | – |
| CC(C)(C)C(=O)OCOP(=O)(OCOC(=O)C(C)(C)C)C1CCCN(OC(=O)c2ccccc2)C1=O (centres undefined) | 0.338 µM | 1.5 µM | 2.53 µM | 20.9 µM | 2.16 µM | 23.2 µM | 2.3 µM | 16.5 µM | – | – | 1.24 µM | 7.28 µM | 0.999 µM | 50.7 µM | 0.605 µM | 3.51 µM | 1.25 µM | 35.8 µM | 5.44 µM | 0.457 µM |
| C=CCCC(O)c1ccc(C(O)CCCCCCCCCCCC)o1 (centres undefined) | 17.3 µM | 44.4 µM | 16.2 µM | 29.7 µM | 16.4 µM | 30.2 µM | 17.8 µM | 35.3 µM | – | – | 18.7 µM | 35.7 µM | 23.9 µM | 50.4 µM | 27.1 µM | > 100 µM | 25.5 µM | 51.2 µM | – | – |
| CN(C)CCCNC(=O)c1cc(NC(=O)CCNC(=O)c2ccc3c(c2)C(=O)c2ccccc2C3=O)cn1C | > 100 µM | > 100 µM | – | – | > 100 µM | > 100 µM | > 100 µM | > 100 µM | > 100 µM | > 100 µM | 33.2 µM | > 100 µM | > 100 µM | > 100 µM | 48 µM | > 100 µM | 58.9 µM | > 100 µM | – | – |
